Source: US6334996B1, “Chelators that predominantely form a single stereoisomeric species upon coordination to a metal center” (Resolution Pharmaceuticals Inc., priority 1997, dated 2002)

Legend:
[1] = log D of the metal complexes; assay type: physicochemical; conditions: ^99mTc complex
[2] = humans; cited from earlier work

logD [1] | Compound | excreted at 30 minutes [2] [%]
-2.3 | CN(C)CC(=O)N[C@@H](CO)C(=O)N[C@@H](CS)C(=O)NCC(=O)O [^99mTc complex of dimethylglycine-serine-cysteine-glycine, metal not drawn] | 
 | Tc complex of 2,3-bis(mercaptoacetamide)propanoate [anti isomer of the Tc complex of 2,3-bis(mercaptoacetamide)propanoate (map)] | 19
-1.3 | CN(C)CC(=O)N[C@H](C(=O)N[C@@H](CS)C(=O)NCC(=O)O)C(C)(C)C [^99mTc complex of dimethylglycine-t-butylglycine-cysteine-glycine, metal not drawn] | 
 | Tc complex of 2,3-bis(mercaptoacetamide)propanoate [syn isomer of the Tc complex of 2,3-bis(mercaptoacetamide)propanoate (map)] | 58
